Data taken from US20090012103A1, “SUBSTITUTED HETEROCYCLIC COMPOUNDS” (priority 2007, published 2009).

Tests used:
[1] = biological target: T1, wild-type human cardiac sodium channel, hNav1.5 (Homo sapiens, UniProt Q14524); test: Late INa screening assay (late sodium current, PatchXpress whole cell patch clamp); assay type: cell-based; details: compound at 10 μM; read-out: Late INa % blk
[2] = biological target: T1, wild-type human cardiac sodium channel, hNav1.5; test: Peak INa screening assay (tonic block TB and use-dependent block UDB of peak sodium current); assay type: cell-based; details: compound at 10 μM
Experimental: The late sodium current (Late INa) and peak sodium current (Peak INa) assays are performed on an automated electrophysiology platform, PatchXpress 7000A (MDS Analytical Technologies, Sunnyvale, Calif.), which uses the whole cell patch clamp technique to measure currents through the cell membrane of up to 16 cells at a time. The assay uses an HEK293 (human embryonic kidney) cell line heterologously expressing the wild-type human cardiac sodium channel, hNav1.5, purchased from Millipore (Billerica, Mass.). No beta subunits were coexpressed with the Na channel alpha subunit. […] Experiments are carried out at 24-27° C.
For both the Late INa and Peak INa assays, series resistance compensation is set to 50% and whole-cell compensation is performed automatically. […] Currents through open sodium channels are automatically recorded and stored in the DataXpress2 database (MDS Analytical Technologies, Sunnyvale, Calif.). Analysis is performed using DataXpress2 analysis software and data are compiled in Excel.
Compound stocks are routinely made in glass vials to 10 mM in dimethyl sulfoxide (DMSO). In some cases, when compounds are not soluble in DMSO, they are made in 100% ethanol. Stocks are sonicated as necessary. The extracellular solution for screening Late INa is composed of: 140 mM NaCl, 4 mM KCl, 1.8 mM CaCl2, 0.75 mM MgCl2, and 5 mM HEPES with pH adjusted to 7.4 using NaOH. The extracellular solution for screening Peak INa is composed of: 20 mM NaCl, 120 mM N-methyl-D glucamine, 4 mM KCl, 1.8 mM CaCl2, 0.75 mM MgCl2, and 5 mM HEPES with pH adjusted to 7.4 using HCl. The intracellular solution used to perfuse the inside of the cells for both the Late INa and Peak INa assays contains: 120 mM CsF, 20 mM CsCl, 5 mM EGTA, 5 mM HEPES and pH adjusted to 7.4 with CsOH. Compounds are diluted in extracellular solution to 10 μM in glass vials and then transferred to glass well plates before robotic addition to the cells. The 0 Na extracellular solution used at the end of each experiment for the Late INa and Peak INa assays to measure baseline current contains: 140 mM N-methyl-D-glucamine; 4 mM KCl; 1.8 mM CaCl2; 0.75 mM MgCl2; 5 mM HEPES and pH was adjusted to 7.4 with HCl.
Compounds were also evaluated for their effect in several other assays, including their effect on Peak INa. In some cases, the effect on Peak INa was measured using data from the Late INa assay. […] Since the peak INa can be very large, introducing artifacts in the recording, the concentration of Na^+ in the bath is reduced to 20 mM and a nonpermeant cation is added to compensate for the Na^+ that was omitted from the standard extracellular solution (see above). The peak INa assay uses a holding potential of −100 mV and a 20 ms test pulse to 0 mV to activate the channel. As in the Late INa assay, stepping the voltage to 0 mV causes a rapid increase in negative Na current through hNav1.5 that inactivates within a few ms. No late INa activator is added for the peak assay.
For the separate peak INa assay, both tonic (TB) block and use-dependent (UDB) block of peak inward sodium current by 10 μM compound are determined. TB is block of the channel in the resting state, before the channel opens. TB is simulated in this assay by stimulating the channel to open at a low frequency (0.1 Hz). This is done in order to measure the control current amplitude and monitor current rundown, enabling correction for rundown in the calculation of percent block for TB.

hERG potassium channel = hERG potassium channel (Homo sapiens, UniProt Q12809); test: hERG screening assay (PatchXpress patch clamp, CHO cell line)
Experimental: Compounds were screened to test their activity in blocking the hERG potassium channel. The hERG channel is heterologously expressed in a CHO (Chinese Hamster Ovary) cell line. Cells are maintained with standard tissue culture procedures and stable channel expression is maintained with 500 μg/ml G418 in the culture medium. Cells are harvested for testing on the PatchXpress automated patch clamp with Accumax (Innovative Cell Technologies, San Diego, Calif.) to isolate single cells.
The following solutions are used for electrophysiological recordings. The external solution contains: 2 mM CaCl2; 2 mM MgCl2; 4 mM KCl; 150 mM NaCl; 10 mM Glucose; 10 mM HEPES (pH 7.4 with 1M NaOH, osmolarity).
hERG channels are activated when the voltage is stepped to +20 mV from the −80 mV holding potential (see FIG. 3). During a 5 second step at +20 mV, the channels activate and then largely inactivate, so the currents are relatively small. Upon returning to −50 mV from +20 mV, hERG currents transiently become much larger as inactivation is rapidly removed and then the channel closes. The first step to −50 mV for 300 ms is used as a baseline for measuring the peak amplitude during the step to −50 mV after channel activation. The peak current at −50 mV is measured both under control conditions and after addition of compound.
All compounds are prepared as 10 mM DMSO stocks in glass vials. Stock solutions are mixed by vigorous vortexing and sonication for about 2 minutes at room temperature. For testing, compounds are diluted in glass vials using an intermediate dilution step in pure DMSO and then further diluted to working concentrations in external solution. Dilutions are prepared no longer than 20 minutes before use.
After achieving the whole-cell configuration, cells are monitored for 90 seconds to assess stability and washed with external solution for 66 seconds. The voltage protocol described above is then applied to the cells every 12 seconds and throughout the whole procedure. Only cells with stable recording parameters and meeting specified health criteria are allowed to enter the compound addition procedure.
External solution containing 0.1% DMSO (vehicle) is applied to the cells first to establish the control peak current amplitude. After allowing the current to stabilize for 3 to 5 minutes, 1 μM and then 10 μM test compounds are applied. Each compound concentration is added 4 times and cells are kept in test solution until the effect of the compound reaches steady state or for a maximum of 12 minutes. […] Washout in the external solution compartment is performed until the recovery of the current reaches steady state. Data are analyzed using DataXpress, Clampfit (Molecular Devices, Inc., Sunnyvale) and Origin 7 (Originlab Corp.)

[3] = tonic block, read-out: Tonic Peak INa % blk
[4] = use-dependent block, read-out: UDB Peak INa % blk

Sequence of hERG potassium channel (Q12809 whole entry): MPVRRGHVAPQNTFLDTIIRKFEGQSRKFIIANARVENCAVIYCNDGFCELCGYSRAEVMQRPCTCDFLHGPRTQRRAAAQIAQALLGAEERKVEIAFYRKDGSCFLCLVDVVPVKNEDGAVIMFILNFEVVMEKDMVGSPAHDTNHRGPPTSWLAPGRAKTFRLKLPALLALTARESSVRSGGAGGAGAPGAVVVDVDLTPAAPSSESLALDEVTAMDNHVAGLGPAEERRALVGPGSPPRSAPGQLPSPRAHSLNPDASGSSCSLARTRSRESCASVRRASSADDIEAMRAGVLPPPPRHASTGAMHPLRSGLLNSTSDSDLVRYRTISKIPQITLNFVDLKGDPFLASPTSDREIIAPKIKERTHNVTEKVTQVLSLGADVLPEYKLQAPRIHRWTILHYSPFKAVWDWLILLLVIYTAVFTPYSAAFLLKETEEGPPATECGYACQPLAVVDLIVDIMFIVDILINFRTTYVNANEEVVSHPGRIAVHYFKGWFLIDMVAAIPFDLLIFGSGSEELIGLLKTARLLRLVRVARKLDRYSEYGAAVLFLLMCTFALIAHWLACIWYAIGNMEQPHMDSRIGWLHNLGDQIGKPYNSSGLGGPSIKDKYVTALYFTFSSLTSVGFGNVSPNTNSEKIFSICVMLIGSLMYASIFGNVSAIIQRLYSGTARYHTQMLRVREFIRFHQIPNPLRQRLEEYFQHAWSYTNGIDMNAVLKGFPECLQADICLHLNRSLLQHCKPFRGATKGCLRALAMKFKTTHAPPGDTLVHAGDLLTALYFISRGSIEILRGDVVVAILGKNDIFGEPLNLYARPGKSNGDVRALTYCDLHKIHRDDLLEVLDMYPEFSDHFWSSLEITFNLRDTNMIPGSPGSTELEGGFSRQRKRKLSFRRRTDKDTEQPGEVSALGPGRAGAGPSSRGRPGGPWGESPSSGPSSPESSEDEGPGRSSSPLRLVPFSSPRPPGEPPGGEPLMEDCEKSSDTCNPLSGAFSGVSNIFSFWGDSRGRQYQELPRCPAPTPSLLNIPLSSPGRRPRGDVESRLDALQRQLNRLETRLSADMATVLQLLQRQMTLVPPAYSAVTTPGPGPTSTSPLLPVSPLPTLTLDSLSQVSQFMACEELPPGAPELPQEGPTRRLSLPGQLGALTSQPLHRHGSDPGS
T1 sequence (Q14524 whole entry): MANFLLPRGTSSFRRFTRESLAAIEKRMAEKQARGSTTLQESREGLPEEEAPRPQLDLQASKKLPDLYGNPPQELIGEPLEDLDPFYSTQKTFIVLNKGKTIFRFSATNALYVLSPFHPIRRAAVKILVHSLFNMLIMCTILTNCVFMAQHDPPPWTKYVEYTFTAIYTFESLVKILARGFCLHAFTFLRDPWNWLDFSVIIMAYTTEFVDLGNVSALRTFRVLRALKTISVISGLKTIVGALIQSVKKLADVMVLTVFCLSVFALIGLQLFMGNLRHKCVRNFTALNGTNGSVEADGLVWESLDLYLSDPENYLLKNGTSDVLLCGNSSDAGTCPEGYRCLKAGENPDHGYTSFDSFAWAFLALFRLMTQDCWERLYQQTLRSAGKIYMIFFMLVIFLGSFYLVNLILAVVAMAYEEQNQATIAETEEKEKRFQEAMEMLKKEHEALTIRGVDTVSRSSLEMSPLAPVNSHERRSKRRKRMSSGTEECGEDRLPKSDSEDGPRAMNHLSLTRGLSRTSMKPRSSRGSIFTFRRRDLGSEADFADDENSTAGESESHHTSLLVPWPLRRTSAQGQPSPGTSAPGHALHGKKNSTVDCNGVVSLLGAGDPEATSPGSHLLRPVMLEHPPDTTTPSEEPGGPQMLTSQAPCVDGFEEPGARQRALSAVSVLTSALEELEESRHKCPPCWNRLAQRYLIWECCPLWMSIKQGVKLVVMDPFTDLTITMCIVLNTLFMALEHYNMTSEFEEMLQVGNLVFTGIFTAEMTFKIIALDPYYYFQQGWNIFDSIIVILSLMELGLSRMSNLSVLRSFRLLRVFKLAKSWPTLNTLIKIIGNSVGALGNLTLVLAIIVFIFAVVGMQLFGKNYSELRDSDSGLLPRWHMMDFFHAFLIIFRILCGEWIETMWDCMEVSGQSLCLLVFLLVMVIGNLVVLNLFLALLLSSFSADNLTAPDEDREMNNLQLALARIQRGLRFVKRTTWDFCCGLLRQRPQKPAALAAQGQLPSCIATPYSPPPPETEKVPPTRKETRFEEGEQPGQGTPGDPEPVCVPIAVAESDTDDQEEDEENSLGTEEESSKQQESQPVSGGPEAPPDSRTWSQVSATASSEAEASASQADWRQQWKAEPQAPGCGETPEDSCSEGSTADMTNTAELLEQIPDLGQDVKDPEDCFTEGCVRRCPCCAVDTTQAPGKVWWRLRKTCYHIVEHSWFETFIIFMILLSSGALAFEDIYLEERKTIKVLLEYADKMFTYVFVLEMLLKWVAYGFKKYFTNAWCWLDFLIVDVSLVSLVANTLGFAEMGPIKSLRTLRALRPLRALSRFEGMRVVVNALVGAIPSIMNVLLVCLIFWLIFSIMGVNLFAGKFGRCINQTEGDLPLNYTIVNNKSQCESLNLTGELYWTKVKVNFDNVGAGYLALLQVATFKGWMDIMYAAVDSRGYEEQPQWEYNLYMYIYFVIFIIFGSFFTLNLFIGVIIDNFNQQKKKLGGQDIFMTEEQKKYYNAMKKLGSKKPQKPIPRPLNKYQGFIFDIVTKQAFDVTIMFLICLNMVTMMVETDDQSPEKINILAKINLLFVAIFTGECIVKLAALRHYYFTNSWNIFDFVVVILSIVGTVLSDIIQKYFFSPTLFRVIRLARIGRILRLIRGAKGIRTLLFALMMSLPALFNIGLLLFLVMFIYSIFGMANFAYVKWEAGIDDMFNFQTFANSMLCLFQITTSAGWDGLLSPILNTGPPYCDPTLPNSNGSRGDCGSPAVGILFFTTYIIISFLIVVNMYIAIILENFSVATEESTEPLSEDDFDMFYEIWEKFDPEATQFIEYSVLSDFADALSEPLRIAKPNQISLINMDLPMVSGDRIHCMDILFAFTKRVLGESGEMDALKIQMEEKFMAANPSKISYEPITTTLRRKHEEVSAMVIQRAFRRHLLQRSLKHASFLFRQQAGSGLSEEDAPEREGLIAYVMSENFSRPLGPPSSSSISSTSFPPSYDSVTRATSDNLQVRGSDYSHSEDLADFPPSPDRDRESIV

Structure (SMILES)	inhibition at 10 µM [1]	inhibition at 10 µM [2, 3]	hERG Patch Clamp hERG % blk (hERG potassium channel; 1 μM)	hERG Patch Clamp hERG % blk (hERG potassium channel; 10 μM)	inhibition at 10 µM [2, 4]
CC1=C(C(=O)OC(c2ccccc2)C2CC2)C(c2cccc3ccccc23)n2nnnc2N1 (stereo not shown) [PT-002, cyclopropyl(phenyl)methyl 5-methyl-7-(naphthalen-1-yl)-4,7-dihydrotetrazolo[1,5-a]pyrimidine-6-carboxylate]	53.1%	2.4%	11.5%	28.0%	–
CCOC(=O)C1=C(C)Nc2nnnn2C1c1ccc2ccccc2c1 (stereo not shown) [PT-008, ethyl 5-methyl-7-(naphthalen-2-yl)-4,7-dihydrotetrazolo[1,5-a]pyrimidine-6-carboxylate]	57.2%	2.1%	10.0%	33.5%	–
CC1=C(C(=O)OCc2ccccc2)C(c2cccc3ccccc23)n2nnnc2N1 (stereo not shown) [PT-027, benzyl 5-methyl-7-(naphthalen-1-yl)-4,7-dihydrotetrazolo[1,5-a]pyrimidine-6-carboxylate]	74.9%	29.7%	14.0%	64.5%	6.8%
CC1=C(C(=O)OCc2ccccc2)C(c2ccc(N(C)C)c3ccccc23)n2nnnc2N1 (stereo not shown) [PT-032, benzyl 7-(4-(dimethylamino)naphthalen-1-yl)-5-methyl-4,7-dihydrotetrazolo[1,5-a]pyrimidine-6-carboxylate]	63.6%	11.5%	19.0%	50.5%	–
CC1=C(C(=O)OCc2ccccc2)C(c2cccs2)n2nnnc2N1 (stereo not shown) [PT-040, benzyl 5-methyl-7-(thiophen-2-yl)-4,7-dihydrotetrazolo[1,5-a]pyrimidine-6-carboxylate]	70.8%	9.9%	14.5%	24.5%	–
CC1=C(C(=O)OCc2ccccc2)C(c2cc3ccccc3o2)n2nnnc2N1 (stereo not shown) [PT-045, benzyl 7-(benzofuran-2-yl)-5-methyl-4,7-dihydrotetrazolo[1,5-a]pyrimidine-6-carboxylate]	92%	23.8%	10.0%	70.0%	–
CC1=C(C(=O)OC2CCc3ccccc32)C(c2cccc3ccccc23)n2nnnc2N1 (stereo not shown) [PT-062, 2,3-dihydro-1H-inden-1-yl 5-methyl-7-(naphthalen-1-yl)-4,7-dihydrotetrazolo[1,5-a]pyrimidine-6-carboxylate]	60.2%	7.9%	14.0%	51.0%	–
CC1=C(C(=O)OC(C)Cc2ccccc2)C(c2cccc3ccccc23)n2nnnc2N1 (stereo not shown) [PT-064, 1-phenylpropan-2-yl 5-methyl-7-(naphthalen-1-yl)-4,7-dihydrotetrazolo[1,5-a]pyrimidine-6-carboxylate]	79.5%	7.2%	20.5%	37.5%	–
N#CC1=C(N)OC2=C(C(=O)CCC2)C1c1ccc(Br)cc1 (stereo not shown) [PT-096, 2-amino-4-(4-bromophenyl)-5-oxo-5,6,7,8-tetrahydro-4H-chromene-3-carbonitrile]	5.5%	-0.4%	15.0%	48.0%	–
N#CC1=C(N)OC2=C(C(=O)CCC2)C1c1ccsc1 (stereo not shown) [PT-100, 2-amino-5-oxo-4-(thiophen-3-yl)-5,6,7,8-tetrahydro-4H-chromene-3-carbonitrile]	-12.1%	4%	10.0%	16.5%	–
N#CC1=C(N)OC2=C(C(=O)CC(c3ccccc3)C2)C1c1cccs1 (stereo not shown) [PT-101, 2-amino-5-oxo-7-phenyl-4-(thiophen-2-yl)-5,6,7,8-tetrahydro-4H-chromene-3-carbonitrile]	49.3%	2.9%	19.0%	67.5%	–
CCOC(=O)C1=C(C)NC(C)=C(C(=O)OCC)C1c1ccc2ccccc2c1 [PT-107, diethyl 2,6-dimethyl-4-(naphthalen-2-yl)-1,4-dihydropyridine-3,5-dicarboxylate]	91.9%	25.9%	11.5%	48.0%	–
CCOC(=O)C1=C(C)NC(C)=C(C(=O)OCC)C1c1ccc2c(c1)OCCO2 [PT-109, diethyl 4-(2,3-dihydrobenzo[b][1,4]dioxin-6-yl)-2,6-dimethyl-1,4-dihydropyridine-3,5-dicarboxylate]	–	18.1%	16.0%	34.2%	–
CCOC(=O)C1=C(C)NC(C)=C(C(=O)OCC)C1c1ccc(CC)s1 [PT-113, diethyl 4-(5-ethylthiophen-2-yl)-2,6-dimethyl-1,4-dihydropyridine-3,5-dicarboxylate]	88.6%	30.4%	11.0%	57.3%	–
CCOC(=O)C1=C(C)NC(C)=C(C(=O)OCC)C1c1cc2ccccc2s1 [PT-114, diethyl 4-(benzo[b]thiophen-2-yl)-2,6-dimethyl-1,4-dihydropyridine-3,5-dicarboxylate]	85%	13.1%	20.9%	51.5%	–
CCOC(=O)C1=C(C)NC(C)=C(C(=O)OCC)C1c1csc2ccccc12 [PT-115, diethyl 4-(benzo[b]thiophen-3-yl)-2,6-dimethyl-1,4-dihydropyridine-3,5-dicarboxylate]	86%	17.2%	–	50.3%	–
CC1=C(C(=O)OC(C)C)C(c2cccc3ccccc23)C(C(=O)OC(C)C)=C(C)N1 [PT-123, diisopropyl 2,6-dimethyl-4-(naphthalen-1-yl)-1,4-dihydropyridine-3,5-dicarboxylate]	86.9%	7%	10.0%	30.5%	–
CC1=C(C(=O)OC(C)C)C(c2ccc(Br)s2)C(C(=O)OC(C)C)=C(C)N1 [PT-124, diisopropyl 4-(5-bromothiophen-2-yl)-2,6-dimethyl-1,4-dihydropyridine-3,5-dicarboxylate]	86.2%	58.7%	11.5%	66.0%	–
CCOC(=O)C1=C(C)Nc2nnnn2C1c1cccc(OCc2ccc(C(=O)OCC)cc2)c1 (stereo not shown) [PT-497, ethyl 7-(3-(4-(ethoxycarbonyl)benzyloxy)phenyl)-5-methyl-4,7-dihydrotetrazolo[1,5-a]pyrimidine-6-carboxylate]	59%	22.2%	–	–	15.4%
CC1=C(C(=O)OC(C)C)C(c2c(Br)sc3ccccc23)n2nnnc2N1 (stereo not shown) [PT-506, isopropyl 7-(2-bromobenzo[b]thiophen-3-yl)-5-methyl-4,7-dihydrotetrazolo[1,5-a]pyrimidine-6-carboxylate]	81.4%	48.8%	–	–	23%
COC(=O)C1=C(C)Nc2nnnn2C1c1c(Br)sc2ccccc12 (stereo not shown) [PT-518, methyl 7-(2-bromobenzo[b]thiophen-3-yl)-5-methyl-4,7-dihydrotetrazolo[1,5-a]pyrimidine-6-carboxylate]	71.2%	24%	–	–	–
